Data on 4 molecules can be found in ChEMBL document CHEMBL1131865, “Aminomethyl-2,6-difluorophenols as a novel class of increased lipophilicity GABA(C) receptor antagonists” (Bioorg Med Chem Lett, 1999).

A word on the pKa: it is the pH at which an ionisable group is half protonated. High values mean a weaker acid or stronger base, low ones a stronger acid or weaker base. For orientation: logD means lipophilicity at a set pH, counting ionised and neutral species. High values mean higher lipophilicity, low ones lower lipophilicity. One may read the IC50 as the point on the concentration scale where inhibition reaches its midpoint. A lower IC50 goes with greater potency in that assay.

Data set [1] is described as follows: Dissociation constant was determined. The format is physicochemical.
Data set [2] can be described thus: Partition coefficient (logD). To be noted: octanol/water. The class given is physicochemical.
For a further data set, the target named is GABA B receptor (Rattus norvegicus, UniProt O88871+Q9Z0U4). In words: Displacement of [3H]GABA from Gamma-aminobutyric acid type B receptor in rat brain membranes. The format is cell membranes. Background: In a radioligand displacement assay an active substance lowers the binding of a labelled ligand.
The target in data set [3] is Gamma-aminobutyric acid receptor subunit rho-1 (Homo sapiens) (UniProt P24046). The data set is described as follows: Inhibition of inward current in oocytes expressing human GABA-C receptor rho1 subunit (No inhibition). Particulars: Oocyte. The class given is cell-based.
Data set [4] shares this target. The data set is described as follows: Inhibition of inward current in oocytes expressing human GABA-C receptor rho1 subunit. Particulars: Oocyte. The class given is cell-based.

Active and inactive are the calls of the source. The calls are words filed in the database; no cut-off is given here. Bounds are passed on as bounds.

Gamma-aminobutyric acid receptor subunit rho-1 (Homo sapiens), sequence (P24046 whole entry): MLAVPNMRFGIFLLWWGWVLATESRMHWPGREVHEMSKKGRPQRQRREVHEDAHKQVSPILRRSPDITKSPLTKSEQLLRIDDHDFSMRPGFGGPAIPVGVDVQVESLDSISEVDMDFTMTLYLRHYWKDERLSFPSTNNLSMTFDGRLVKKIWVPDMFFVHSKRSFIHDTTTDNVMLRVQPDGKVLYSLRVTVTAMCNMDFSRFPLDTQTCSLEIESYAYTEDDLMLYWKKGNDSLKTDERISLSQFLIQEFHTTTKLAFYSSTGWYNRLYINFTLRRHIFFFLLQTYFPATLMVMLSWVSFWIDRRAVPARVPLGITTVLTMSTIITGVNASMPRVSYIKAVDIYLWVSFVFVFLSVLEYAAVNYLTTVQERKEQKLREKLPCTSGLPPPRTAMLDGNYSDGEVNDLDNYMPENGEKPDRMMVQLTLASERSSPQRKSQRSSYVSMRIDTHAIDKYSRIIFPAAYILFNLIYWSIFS
GABA B receptor, sequence (Q9Z0U4 whole entry): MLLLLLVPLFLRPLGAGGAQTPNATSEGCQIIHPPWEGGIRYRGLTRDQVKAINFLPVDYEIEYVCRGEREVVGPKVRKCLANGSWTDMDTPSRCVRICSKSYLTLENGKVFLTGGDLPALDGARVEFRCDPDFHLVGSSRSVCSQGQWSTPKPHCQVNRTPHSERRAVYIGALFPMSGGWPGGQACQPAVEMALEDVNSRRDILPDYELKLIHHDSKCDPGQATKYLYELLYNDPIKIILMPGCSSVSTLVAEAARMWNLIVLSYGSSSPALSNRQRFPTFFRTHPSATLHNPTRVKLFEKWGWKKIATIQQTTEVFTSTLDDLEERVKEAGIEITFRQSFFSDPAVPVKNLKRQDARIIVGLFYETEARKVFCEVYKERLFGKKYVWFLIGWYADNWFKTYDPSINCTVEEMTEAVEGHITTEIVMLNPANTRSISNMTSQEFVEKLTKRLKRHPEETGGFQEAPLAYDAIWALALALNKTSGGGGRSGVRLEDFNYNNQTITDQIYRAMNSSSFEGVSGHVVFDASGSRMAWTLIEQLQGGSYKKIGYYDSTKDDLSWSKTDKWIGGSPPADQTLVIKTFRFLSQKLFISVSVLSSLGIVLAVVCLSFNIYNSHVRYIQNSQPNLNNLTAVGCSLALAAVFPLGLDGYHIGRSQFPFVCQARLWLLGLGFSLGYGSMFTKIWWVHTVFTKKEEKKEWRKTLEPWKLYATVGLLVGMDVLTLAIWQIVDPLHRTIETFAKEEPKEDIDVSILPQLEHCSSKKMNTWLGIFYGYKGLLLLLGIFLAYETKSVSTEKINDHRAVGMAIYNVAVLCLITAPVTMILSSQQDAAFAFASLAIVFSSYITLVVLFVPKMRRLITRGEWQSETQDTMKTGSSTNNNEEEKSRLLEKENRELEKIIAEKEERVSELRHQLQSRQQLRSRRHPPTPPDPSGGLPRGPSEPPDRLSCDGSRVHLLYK
GABA B receptor, sequence (O88871 whole entry): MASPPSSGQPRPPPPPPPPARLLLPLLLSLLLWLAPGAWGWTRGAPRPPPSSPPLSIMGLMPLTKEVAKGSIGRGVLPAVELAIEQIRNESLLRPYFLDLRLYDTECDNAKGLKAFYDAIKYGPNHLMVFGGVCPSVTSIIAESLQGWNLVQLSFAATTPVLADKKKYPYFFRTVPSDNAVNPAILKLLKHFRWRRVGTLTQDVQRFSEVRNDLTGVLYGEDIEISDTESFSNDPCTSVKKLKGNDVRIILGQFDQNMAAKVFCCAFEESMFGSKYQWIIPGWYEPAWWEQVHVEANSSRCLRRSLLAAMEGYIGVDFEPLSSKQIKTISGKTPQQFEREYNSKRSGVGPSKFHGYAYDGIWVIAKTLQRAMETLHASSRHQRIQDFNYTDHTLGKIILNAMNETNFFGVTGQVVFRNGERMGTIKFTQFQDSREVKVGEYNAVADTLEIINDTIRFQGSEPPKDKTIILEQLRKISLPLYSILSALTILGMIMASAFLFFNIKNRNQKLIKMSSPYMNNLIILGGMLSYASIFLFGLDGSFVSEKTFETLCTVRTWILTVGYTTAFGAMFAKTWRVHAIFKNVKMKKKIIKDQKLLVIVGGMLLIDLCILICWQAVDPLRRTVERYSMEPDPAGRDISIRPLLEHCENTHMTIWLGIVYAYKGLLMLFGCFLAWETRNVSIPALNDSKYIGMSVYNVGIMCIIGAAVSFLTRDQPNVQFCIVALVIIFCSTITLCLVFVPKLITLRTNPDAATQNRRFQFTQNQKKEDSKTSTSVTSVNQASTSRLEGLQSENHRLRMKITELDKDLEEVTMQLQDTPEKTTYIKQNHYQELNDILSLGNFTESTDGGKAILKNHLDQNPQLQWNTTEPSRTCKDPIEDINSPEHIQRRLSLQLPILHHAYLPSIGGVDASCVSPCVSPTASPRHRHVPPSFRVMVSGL

`NCc1cc(F)c(O)c(F)c1` had a pKa in data set [1] of 6.98. In data set [2], the logD was -1.7. This molecule also registered a half-inhibitory concentration (IC50) at GABA B receptor above 1000 µM. The Kb in data set [3] came out at 75.5 µM. Besides, the Log KB in data set [4] was -4.12.
For `NCCCC(=O)O` [GAMMA-AMINOBUTYRIC ACID], in data set [2], the pH-dependent lipophilicity (logD) is -3.1.
In data set [1], `NCc1ccc(F)c(O)c1F` returned a pKa of 6.52. This molecule also yielded a logD in data set [2] of -1.7. At GABA B receptor, the IC50 is above 1000 µM. The Kb entry in data set [3] was “inactive”.
`CP(=O)(O)C1=CCNCC1` showed a logD in data set [2] of -3.7.
